Experiment [1] concerns acute myelogenous leukemia cells (MV-4-11 cells). The experiment can be described thus: Cytotoxicity to acute myelogenous leukemia cells (MV-4-11 cells), CCK-8. As to conditions: Homo sapiens, MV4-11, 72 h.
In experiment [2] the target is BRD4 (BD1+BD2) bromodomain (Homo sapiens (Human), UniProt O60885). The experiment can be described thus: BRD4 binding inhibition (AlphaScreen, GST-BRD4 vs tetraacetylated histone H4 peptide). Summed up:
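GST-BRD4 (BD1+BD2) and biotinylated tetraacetyl-histone H4 peptide, each at 100 nM in HEPES pH 7.4 buffer with BSA and DTT, were combined with compound. Glutathione acceptor and streptavidin donor beads were added, then incubated 30 min at room temperature in the dark. Read-out was AlphaScreen signal.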
For orientation: Alpha assays give light when donor and acceptor beads are brought close together.

[3] abbreviates: read-out: MV-4-11 Cytotoxicity IC50.
[4] abbreviates: GST-BRD4 (BD1+BD2) / biotinylated acetyl-histone H4 (Lys5,8,12,16) peptide, read-out: IC50, BRD4 binding inhibition.
Where [5] appears, read: GST-BRD4 (BD1+BD2) vs biotinylated acetyl-histone H4 peptide, AlphaScreen, read-out: BRD4 IC50.
[6] abbreviates: read-out: IC50, cytotoxicity against acute myelogenous leukemia cells.

For 22 compounds, IC50 results are on record in patent US11028090B2 (Dong Wha Pharm. Co., Ltd., priority 2017, dated 2021).

Like-named read-outs stand apart in the source and are kept apart here.

Broadly, the IC50 is the concentration that inhibits the measured activity by half. As to `COc1ccc2c(c1)nc(NCCCCNC(=O)[C@H](C(C)C)N1CCC(O)C1)c1nnc(C)n12` (stereo partly drawn) [Example 315, 2-(S)-(3-hydroxy-pyrrolidine-1-yl)-N-[4-(7-methoxy-1-methyl-[1,2,4]triazolo[4,3-a]quinoxaline-4-ylamino)-butyl]-3-methyl-butyramide], the half-inhibitory concentration (IC50) in experiment [1] (setting [3]) is 550 nM; in experiment [2] (setting [4]), at most 50 nM; in experiment [2] (setting [5]), 36 nM.
The like results for `COc1ccc2c(c1)nc(NCCCCNC(=O)[C@H](C(C)C)N1CCC(O)CC1)c1nnc(C)n12` [Example 316, 2-(S)-(4-hydroxy-piperidine-1-yl)-N-[4-(7-methoxy-1-methyl-[1,2,4]triazolo[4,3-a]quinoxaline-4-ylamino)-butyl]-3-methyl-butyramide] were, in that order, 730 nM, at most 50 nM and 41 nM.
On to `COc1ccc2c(c1)nc(NCCCCNC(=O)[C@@H](NC(=O)OCC(C)C)C(C)C)c1nnc(C)n12` [Example 318, (S)-{1-[4-(7-methoxy-1-methyl-[1,2,4]triazolo[4,3-a]quinoxaline-4-ylamino)-butylcarbamoyl]-2-methyl-propyl}-carbamic acid isobutylester], for which the IC50 in experiment [1] (setting [6]) is at most 200 nM; in experiment [1] (setting [3]) it was 32 nM; in experiment [2] (setting [4]) it was at most 10 nM; in experiment [2] (setting [5]) it was 10 nM.
`CCCOC(=O)N[C@H](C(=O)NCCCCNc1nc2cc(OC)ccc2n2c(C)nnc12)C(C)C` [Example 319, (S)-{1-[4-(7-methoxy-1-methyl-[1,2,4]triazolo[4,3-a]quinoxaline-4-ylamino)-butylcarbamoyl]-2-methyl-propyl}-carbamic acid propylester]: the IC50 in experiment [1] (setting [6]) was at most 200 nM; in experiment [1] (setting [3]) it was 114 nM; in experiment [2] (setting [4]), at most 50 nM; in experiment [2] (setting [5]), 11 nM.
In the case of `COc1ccc2c(c1)nc(NCCCCNC(=O)[C@@H](NC(=O)OC(C)C)C(C)C)c1nnc(C)n12` [Example 320, (S)-{1-[4-(7-methoxy-1-methyl-[1,2,4]triazolo[4,3-a]quinoxaline-4-ylamino)-butylcarbamoyl]-2-methyl-propyl}-carbamic acid isopropylester], the IC50 in experiment [1] (setting [3]) is 670 nM; in experiment [2] (setting [4]), at most 10 nM; in experiment [2] (setting [5]) it was 4 nM.
The like results for `COc1ccc2c(c1)nc(NCCCCNC(=O)[C@@H](NC(=O)[C@@H](F)C(C)C)C(C)C)c1nnc(C)n12` [Example 321, (S)-2-(S)-fluoro-N-{1-[4-(7-methoxy-1-methyl-[1,2,4]triazolo[4,3-a]quinoxaline-4-ylamino)-butylcarbamoyl]-2-methyl-propyl}-3-methyl-butyramide] were, in that order, 553 nM, at most 50 nM and 12 nM.
Regarding `COc1ccc2c(c1)nc(NCCCCNC(=O)[C@@H](NC(=O)CC(C)C)C(C)C)c1nnc(C)n12` [Example 322, (S)-N-[4-(7-methoxy-1-methyl-[1,2,4]triazolo[4,3-a]quinoxaline-4-ylamino)-butyl]-3-methyl-2-(3-methyl-butyrylamino)-butyramide], the half-inhibitory concentration (IC50) is at most 200 nM in experiment [1] (setting [6]), 157 nM in experiment [1] (setting [3]), at most 50 nM in experiment [2] (setting [4]) and 14 nM in experiment [2] (setting [5]).
The matching figures for `COc1ccc2c(c1)nc(NCCCCNC(=O)[C@@H](NC(=O)C(C)(C)C)C(C)C)c1nnc(C)n12` [Example 323, (S)-2-(2,2-dimethyl-propionylamino)-N-[4-(7-methoxy-1-methyl-[1,2,4]triazolo[4,3-a]quinoxaline-4-ylamino)-butyl]-3-methyl-butyramide]: at most 200 nM, 107 nM, at most 50 nM and 35 nM.
The matching figures for `COc1ccc2c(c1)nc(NCCCCNC(=O)[C@@H](NS(C)(=O)=O)C(C)C)c1nnc(C)n12` [Example 327, 2-(S)-methanesulfonylamino-N-[4-(7-methoxy-1-methyl-[1,2,4]triazolo[4,3-a]quinoxaline-4-ylamino)-butyl]-3-methyl-butyramide]: at most 200 nM, 140 nM, at most 50 nM and 18 nM.
The like results for `COc1ccc2c(c1)nc(NCCCCNC(=O)c1ccccc1F)c1nnc(C)n12` [Example 328, 2-fluoro-N-[4-(7-methoxy-1-methyl-[1,2,4]triazolo[4,3-a]quinoxaline-4-ylamino)-butyl]-benzramide] were, in that order, at most 200 nM, 190 nM, at most 50 nM and 43 nM.
For `COc1ccc2c(c1)nc(NCCCCNC(=O)Cc1ccccc1)c1nnc(C)n12` [Example 329, N-[4-(7-methoxy-1-methyl-[1,2,4]triazolo[4,3-a]quinoxaline-4-ylamino)-butyl]-2-phenyl-acetamide], the 50% inhibitory concentration (IC50) was at most 200 nM in experiment [1] (setting [6]), 19 nM in experiment [1] (setting [3]), at most 50 nM in experiment [2] (setting [4]) and 35 nM in experiment [2] (setting [5]).
As to `COc1ccc2c(c1)nc(NCCCCNC(=O)NC(C)C)c1nnc(C)n12` [Example 330, 1-isopropyl-3-[4-(7-methoxy-1-methyl-[1,2,4]triazolo[4,3-a]quinoxaline-4-ylamino)-butyl]-urea], the IC50 in experiment [1] (setting [6]) was at most 200 nM; in experiment [1] (setting [3]) it was 140 nM; in experiment [2] (setting [4]), at most 50 nM; in experiment [2] (setting [5]), 29 nM.
The like results for `COc1ccc2c(c1)nc(NCCCCNC(=O)OC1CCCC1)c1nnc(C)n12` [Example 332, [4-(7-methoxy-1-methyl-[1,2,4]triazolo[4,3-a]quinoxaline-4-ylamino)-butyl]-carbamic acid cyclopentylester] were, in that order, at most 200 nM, 10 nM, at most 50 nM and 17 nM.
Regarding `COc1ccc2c(c1)nc(NCCCCNC(=O)Oc1ccccc1)c1nnc(C)n12` [Example 333, [4-(7-methoxy-1-methyl-[1,2,4]triazolo[4,3-a]quinoxaline-4-ylamino)-butyl]-carbamic acid phenylester], the 50% inhibitory concentration (IC50) was at most 200 nM in experiment [1] (setting [6]); 110 nM in experiment [1] (setting [3]); 18 nM in experiment [2] (setting [5]); at most 50 nM in experiment [2] (IC50, BRD4 binding inhibition, GST-BRD4 (BD1+BD2) / biotinylated acetyl-histone H4 (Lys5,8,12,16) peptide).
Take `COc1ccc2c(c1)nc(NCCCCNC(=O)NC1CCCCC1)c1nnc(C)n12` [Example 335, 1-cyclohexyl-3-[4-(7-methoxy-1-methyl-[1,2,4]triazolo[4,3-a]quinoxaline-4-ylamino)-butyl]-urea]: the IC50 in experiment [1] (setting [6]) is at most 200 nM; in experiment [1] (setting [3]), 40 nM; in experiment [2] (setting [4]), at most 50 nM; in experiment [2] (setting [5]) it was 16 nM.
On to `COc1ccc2c(c1)nc(NCCCCNC(=O)SC(C)C)c1nnc(C)n12` [Example 336, [4-(7-methoxy-1-methyl-[1,2,4]triazolo[4,3-a]quinoxaline-4-ylamino)-butyl]-thiocarbamic acid-S-isopropyl ester], for which the 50% inhibitory concentration (IC50) is at most 200 nM in experiment [1] (setting [6]), 80 nM in experiment [1] (setting [3]), at most 50 nM in experiment [2] (setting [4]) and 33 nM in experiment [2] (setting [5]).
The like results for `Cc1nnc2c(NCCCCNC(=O)CC(C)C)nc3cc(O)ccc3n12` [Example 340, N-[4-(7-hydroxy-1-methyl-[1,2,4]triazolo[4,3-a]quinoxaline-4-ylamino)-butyl]-3-methyl-butyramide] were, in that order, at most 200 nM, 54 nM, at most 50 nM and 23 nM.
On to `Cc1nnc2c(NCCCCNC(=O)CC(C)C)nc3cc(OCc4ccc(C#N)cc4)ccc3n12` [Example 341, N-{4-[7-(4-cyano-benzyloxy)-1-methyl-[1,2,4]triazolo[4,3-a]quinoxaline-4-ylamino]-butyl}-3-methyl-butyramide], for which the 50% inhibitory concentration (IC50) in experiment [1] (setting [6]) is at most 200 nM; in experiment [1] (setting [3]), 52 nM; in experiment [2] (setting [5]), 71 nM.
`Cc1nnc2c(NCCCCNC(=O)CC(C)C)nc3cc(OCCCC#N)ccc3n12` [Example 342, N-{4-[7-(3-cyano-propoxy)-1-methyl-[1,2,4]triazolo[4,3-a]quinoxaline-4-ylamino]-butyl}-3-methyl-butyramide]: the IC50 is at most 200 nM in experiment [1] (setting [6]), 28 nM in experiment [1] (setting [3]) and 56 nM in experiment [2] (setting [5]).
On to `Cc1nnc2c(NCCCCNC(=O)CC(C)C)nc3cc(OCC4CCCCO4)ccc3n12` (stereo not shown) [Example 343, 3-methyl-N-{4-[1-methyl-7-(tetrahydro-pyran-2-yl-methoxy)-[1,2,4]triazolo[4,3-a]quinoxaline-4-ylamino]-butyl}-butyramide], for which the IC50 is at most 200 nM in experiment [1] (setting [6]), 120 nM in experiment [1] (setting [3]), at most 50 nM in experiment [2] (setting [4]) and 36 nM in experiment [2] (setting [5]).
The like results for `Cc1nnc2c(NCCCCNC(=O)CC(C)C)nc3cc(OC4CCOCC4)ccc3n12` [Example 344, 3-methyl-N-{4-[1-methyl-7-(tetrahydro-pyran-4-yloxy)-[1,2,4]triazolo[4,3-a]quinoxaline-4-ylamino]-butyl}-butyramide] were, in that order, at most 200 nM, 121 nM, at most 10 nM and 10 nM.
The like results for `Cc1nnc2c(NCCCCNC(=O)CC(C)C)nc3cc(OCc4ccccc4)ccc3n12` [Example 346, N-[4-(7-benzyloxy-1-methyl-[1,2,4]triazolo[4,3-a]quinoxaline-4-ylamino)-butyl]-3-methyl-butyramide] were, in that order, at most 200 nM, 79 nM, at most 50 nM and 22 nM.
